From patent US20080200404A1, “Novel Antimalarial 9A-Carbamoyl-Aminoalkyl and 9A-Thiocarbamoyl-Aminoalkyl Azalides” (priority 2005, published 2008)
In brackets after ≈: the same amount, converted by molar mass. Like-named read-outs stand apart in the source and are kept apart here.

Tests used:
Assay type in all cases: cell-based
[1] = system: Plasmodium falciparum TM91C235; test: In vitro antimalarial [3H]-hypoxanthine incorporation assay, TM91C235; conditions: P. falciparum TM91C235 (multiple drug resistant isolate), 72 hours exposure; for IC50: Plasmodium falciparum
Source text: (§1) The in vitro screens for intrinsic antimalarial activity were based on modifications of the procedures described by Desjardins R E, Canfield C J, Haynes J D, Chulay J D. (Quantitative assessment of antimalarial activity in vitro by a semiautomated microdilution technique. Antimicrob Agents Chemother. 1979 December; 16(6):710-8.), Chulay J D, Haynes J D, Diggs C L. (Plasmodium falciparum: Assessment of in vitro growth by [3H]hypoxanthine incorporation. Exp. Parasitol. 1983 55:138-146.), and Milhous W K, Weatherly N F, Bowdre J H, Desjardins R E. (In vitro activities of and mechanisms of resistance to antifol antimalarial drugs. Antimicrob Agents Chemother. 1985 April; 27(4):525-30.). The system was limited to the assessment of the intrinsic activity against the erythrocytic asexual life cycle (blood schizontocides). Two Plasmodium falciparum clones from CDC/Indochina III (W-2) and CDC/Sierra Leone I (D-6) (Oduola A M, Weatherly N F, Bowdre J H, Desjardins R E. Plasmodium falciparum: cloning by single-erythrocyte micromanipulation and heterogeneity in vitro. Exp Parasitol. 1988 66(1):86-95.) were used for all assays. TM91C235, a multiple drug resistant isolate from Thailand, was used for the prescreening assay. W-2 is resistant to chloroquine, quinine, and pyrimethamine and susceptible to mefloquine. D-6 tends to be more resistant to mefloquine and susceptible to chloroquine, quinine, and pyrimethamine. All documents cited in this paragraph are incorporated by reference in their entirety.
(§2) All parasites were maintained in continuous long term cultures in RPMI-1640 medium supplemented with 6% washed human A positive (A+)(erythrocytes, 25 mM Hepes, […], and 10% heat inactivated A+human plasma or ALBUMAX® (lipid-rich bovine serum albumin; Invitrogen, Carlsbad, Calif.). All cultures and assays were conducted at 37° C. under an atmosphere of 5% CO2 and 5% O2, with a balance of N2.
The prescreening assay uses TM91C235 diluted at a 0.4% parasitemia in a 1% hematocrit in folic acid free and p-aminobenzoic acid free media RPMI-1640 and ALBUMAX®. One mg of the compound is typically dissolved in 100 μl of dimethyl sulfoxide (DMSO). The compound is further diluted in culture medium (FF) with ALBUMAX® for the first initial starting concentration. The rest of the stock drug solution was kept at −70° C. The isolate was preexposed, in duplicate, at three concentrations (25,000 ng/ml, 2,500 ng/ml, and 25 ng/ml) of the test compound for 48 hr in a 96-well microtiter plate (MTP) using the BIOMEK® 2000 automated laboratory workstation. Each MTP contains chloroquine as control to assess the relative activity of the compound and to monitor the response of TM91C235.
(§3) After the preincubation, [^3H]-hypoxanthine was added to each well of the MTP. (The assay relies on the incorporation of radiolabeled hypoxanthine by the parasites, which indicates reproduction, and inhibition of isotope incorporation was attributed to activity of known or candidate antimalarial drugs). After 72 hr of total incubation time, the MTP were frozen to lyse the erythrocytes and parasites. The parasite DNA was recovered by harvesting the lysate onto glass-fiber filter plates using a Packard FilterMate™ Cell Harvester. The radioactivity was counted on a Packard TopCount™ microplate scintillation counter. The results were recorded as counts per minutes (CPM) per well at each drug concentration divided by the arithmetic mean of the CPM from the three untreated infection parasite control wells.
The serial dilution assay was conducted using the same assay conditions and stock solution of the compound used for the preliminary screen, described above. Both the D-6 and the W-2 clones were used. The compounds were diluted two-fold over 11 different concentration ranges with a starting concentration that was based on the preliminary screen. […]

[2] = system: Plasmodium falciparum clone CDC/Sierra Leone I (D-6); test: In vitro antimalarial [3H]-hypoxanthine incorporation serial dilution assay, D6; conditions: P. falciparum D6, 72 hours exposure; for IC50: Plasmodium falciparum, D6, 72 h
Source text: as §1, §2, §3
(§4) The serial dilution assay was conducted using the same assay conditions and stock solution of the compound used for the preliminary screen, described above. Both the D-6 and the W-2 clones were used. The compounds were diluted two-fold over 11 different concentration ranges with a starting concentration that was based on the preliminary screen. For each drug, the concentration response profile was determined and 50% inhibitory concentrations (IC50) were determined by using a non-linear, logistic dose response analysis program. […] For each assay, the IC50 for each clone was determined against the known antimalarials chloroquine and mefloquine. These control values established the compound's relative parasite susceptibility profile compared to known antimalarials. […]
(§5) The in vitro potency of the compounds has been compared with that of azithromycin to better gauge compounds suitable for further testing. As described above, parasites were exposed for 72 hours. Data from the in vitro potency tests of azithromycin against the three parasite strains have been averaged, and these numbers have been used for identification of “active” macrolide compounds.

[3] = system: Plasmodium falciparum clone CDC/Indochina III (W-2); test: In vitro antimalarial [3H]-hypoxanthine incorporation serial dilution assay, W2; conditions: P. falciparum W2, 72 hours exposure; for IC50: Plasmodium falciparum
Source text: as §1, §2, §3, §4, §5

[4] = compared with azithromycin, read-out: IC50 D6 (class symbol)

SMILES	IC50 [1]	IC50 ([2]; read-out: IC50 D6)	IC50 [3]	IC50 [2, 4]	IC50 TM91C235 [1]	IC50 D6 [2]	IC50 W2 [3]
CC[C@H]1OC(=O)[C@H](C)[C@@H](O[C@H]2C[C@@](C)(OC)[C@@H](O)[C@H](C)O2)[C@H](C)[C@@H](O[C@@H]2O[C@H](C)C[C@H](N(C)C)[C@H]2O)[C@](C)(O)C[C@@H](C)CN(CCCNC(=S)Nc2ccsc2C(=O)OC)[C@H](C)[C@@H](O)[C@]1(C)O.O=CO [Example 147]	0.343 mg/L	0.469 mg/L	0.389 mg/L	–	–	–	–
CC[C@H]1OC(=O)[C@H](C)[C@@H](O[C@H]2C[C@@](C)(OC)[C@@H](O)[C@H](C)O2)[C@H](C)[C@@H](O[C@@H]2O[C@H](C)C[C@H](N(C)C)[C@H]2O)[C@](C)(O)C[C@@H](C)CN(CCCNC(=O)Nc2cc(C)oc2C(F)(F)F)[C@H](C)[C@@H](O)[C@]1(C)O.O=CO [Example 88]	0.33 mg/L	0.371 mg/L	0.319 mg/L	–	–	–	–
CC[C@H]1OC(=O)[C@H](C)[C@@H](O[C@H]2C[C@@](C)(OC)[C@@H](O)[C@H](C)O2)[C@H](C)[C@@H](O[C@@H]2O[C@H](C)C[C@H](N(C)C)[C@H]2O)[C@](C)(O)C[C@@H](C)CN(CCCNC(=O)NC2CCCCC2)[C@H](C)[C@@H](O)[C@]1(C)O [Example 58]	0.377 mg/L (≈ 0.411 µM)	–	0.169 mg/L (≈ 0.185 µM)	> 0.797 mg/L	–	–	–
CC[C@H]1OC(=O)[C@H](C)[C@@H](O[C@H]2C[C@@](C)(OC)[C@@H](O)[C@H](C)O2)[C@H](C)[C@@H](O[C@@H]2O[C@H](C)C[C@H](N(C)C)[C@H]2O)[C@](C)(O)C[C@@H](C)CN(CCCNC(=S)Nc2ccc(N(C)C)c3ccccc23)[C@H](C)[C@@H](O)[C@]1(C)O.O=CO [Example 142]	0.192 mg/L	0.348 mg/L	0.186 mg/L	–	–	–	–
CCc1ccccc1NC(=S)NCCCN1C[C@H](C)C[C@@](C)(O)[C@H](O[C@@H]2O[C@H](C)C[C@H](N(C)C)[C@H]2O)[C@@H](C)[C@H](O[C@H]2C[C@@](C)(OC)[C@@H](O)[C@H](C)O2)[C@@H](C)C(=O)O[C@H](CC)[C@@](C)(O)[C@H](O)[C@H]1C [Example 101]	0.24 mg/L (≈ 0.252 µM)	0.425 mg/L (≈ 0.445 µM)	0.0919 mg/L (≈ 0.0962 µM)	–	–	–	–
CC[C@H]1OC(=O)[C@H](C)[C@@H](O[C@H]2C[C@@](C)(OC)[C@@H](O)[C@H](C)O2)[C@H](C)[C@@H](O[C@@H]2O[C@H](C)C[C@H](N(C)C)[C@H]2O)[C@](C)(O)C[C@@H](C)CN(CCCNC(=S)NC2CC3C=CC2C3)[C@H](C)[C@@H](O)[C@]1(C)O.O=CO (stereo partly drawn) [Example 151]	0.181 mg/L	0.299 mg/L	0.171 mg/L	–	–	–	–
CC[C@H]1OC(=O)[C@H](C)[C@@H](O[C@H]2C[C@@](C)(OC)[C@@H](O)[C@H](C)O2)[C@H](C)[C@@H](O[C@@H]2O[C@H](C)C[C@H](N(C)C)[C@H]2O)[C@](C)(O)C[C@@H](C)CN(CCCNC(=S)Nc2ccc(-n3cccn3)cc2)[C@H](C)[C@@H](O)[C@]1(C)O.O=CO [Example 140]	0.105 mg/L	0.166 mg/L	0.114 mg/L	–	–	–	–
CC[C@H]1OC(=O)[C@H](C)[C@@H](O[C@H]2C[C@@](C)(OC)[C@@H](O)[C@H](C)O2)[C@H](C)[C@@H](O[C@@H]2O[C@H](C)C[C@H](N(C)C)[C@H]2O)[C@](C)(O)C[C@@H](C)CN(CCCNC(=S)Nc2c(F)cccc2F)[C@H](C)[C@@H](O)[C@]1(C)O [Example 104]	0.181 mg/L (≈ 0.188 µM)	0.49 mg/L (≈ 0.509 µM)	0.0831 mg/L (≈ 0.0863 µM)	–	–	–	–
CC[C@H]1OC(=O)[C@H](C)[C@@H](O[C@H]2C[C@@](C)(OC)[C@@H](O)[C@H](C)O2)[C@H](C)[C@@H](O[C@@H]2O[C@H](C)C[C@H](N(C)C)[C@H]2O)[C@](C)(O)C[C@@H](C)CN(CCCNC(=O)Nc2cccc(F)c2)[C@H](C)[C@@H](O)[C@]1(C)O.O=CO [Example 81]	0.16 mg/L	0.565 mg/L	0.278 mg/L	–	–	–	–
CC[C@H]1OC(=O)[C@H](C)[C@@H](O[C@H]2C[C@@](C)(OC)[C@@H](O)[C@H](C)O2)[C@H](C)[C@@H](O[C@@H]2O[C@H](C)C[C@H](N(C)C)[C@H]2O)[C@](C)(O)C[C@@H](C)CN(CCCNC(=S)Nc2ccc(OC)cc2)[C@H](C)[C@@H](O)[C@]1(C)O [Example 102]	0.201 mg/L (≈ 0.209 µM)	0.46 mg/L (≈ 0.48 µM)	0.0737 mg/L (≈ 0.077 µM)	–	–	–	–
CC[C@H]1OC(=O)[C@H](C)[C@@H](O[C@H]2C[C@@](C)(OC)[C@@H](O)[C@H](C)O2)[C@H](C)[C@@H](O[C@@H]2O[C@H](C)C[C@H](N(C)C)[C@H]2O)[C@](C)(O)C[C@@H](C)CN(CCCNC(=S)Nc2sc3c(c2C(=O)OC)CCCC3)[C@H](C)[C@@H](O)[C@]1(C)O [Example 148]	0.426 mg/L (≈ 0.407 µM)	0.862 mg/L (≈ 0.825 µM)	0.24 mg/L (≈ 0.229 µM)	–	–	–	–
CCC1OC(=O)C(C)C(OC2CC(C)(OC)C(O)C(C)O2)C(C)C(OC2OC(C)CC(N(C)C)C2O)C(C)(O)CC(C)CN(CCNC(=O)Nc2cccc3ccccc23)C(C)C(O)C1(C)O (stereo not drawn) [Example 2, 9-Deoxo-9-dihydro-9a-[N′-(1-naphtyl)carbamoyl-β-aminoethyl]-9a-aza-9a-homoerythromycin A]	–	–	–	–	0.0399 mg/L (≈ 0.0421 µM)	0.1344 mg/L (≈ 0.142 µM)	0.0744 mg/L (≈ 0.0785 µM)
CC[C@H]1OC(=O)[C@H](C)[C@@H](O[C@H]2C[C@@](C)(OC)[C@@H](O)[C@H](C)O2)[C@H](C)[C@@H](O[C@@H]2O[C@H](C)C[C@H](N(C)C)[C@H]2O)[C@](C)(O)C[C@@H](C)CN(CCCNC(=S)Nc2ccc(OC)cc2)[C@H](C)[C@@H](O)[C@]1(C)O.O=CO [Example 61]	0.436 mg/L	–	0.253 mg/L	> 0.797 mg/L	–	–	–
CC[C@H]1OC(=O)[C@H](C)[C@@H](O[C@H]2C[C@@](C)(OC)[C@@H](O)[C@H](C)O2)[C@H](C)[C@@H](O[C@@H]2O[C@H](C)C[C@H](N(C)C)[C@H]2O)[C@](C)(O)C[C@@H](C)CN(CCCNC(=S)Nc2ccc(OC(F)F)cc2)[C@H](C)[C@@H](O)[C@]1(C)O [Example 106]	0.12 mg/L (≈ 0.121 µM)	0.215 mg/L (≈ 0.216 µM)	0.0626 mg/L (≈ 0.063 µM)	–	–	–	–
CC[C@H]1OC(=O)[C@H](C)[C@@H](O[C@H]2C[C@@](C)(OC)[C@@H](O)[C@H](C)O2)[C@H](C)[C@@H](O[C@@H]2O[C@H](C)C[C@H](N(C)C)[C@H]2O)[C@](C)(O)C[C@@H](C)CN(CCCNC(=O)Nc2ccc(C#N)cc2)[C@H](C)[C@@H](O)[C@]1(C)O [Example 59]	0.193 mg/L (≈ 0.206 µM)	0.362 mg/L (≈ 0.386 µM)	0.092 mg/L (≈ 0.0983 µM)	–	–	–	–
CC[C@H]1OC(=O)[C@H](C)[C@@H](O[C@H]2C[C@@](C)(OC)[C@@H](O)[C@H](C)O2)[C@H](C)[C@@H](O[C@@H]2O[C@H](C)C[C@H](N(C)C)[C@H]2O)[C@](C)(O)C[C@@H](C)CN(CCCNC(=S)Nc2ccccc2F)[C@H](C)[C@@H](O)[C@]1(C)O.O=CO [Example 136]	0.121 mg/L	0.978 mg/L	0.396 mg/L	–	–	–	–
